In patent US6001882A (priority 1997, dated 1999):
Where “and” joins values, the source holds several entries; their conditions need not be identical. Identical values can stand only once. Like-named read-outs stand apart in the source and are kept apart here.

What was measured:
[1] = system: malignant leukocytes; assay: Flow cytometric sorting of apoptotic malignant leukocytes (dUTP-FITC incorporation); type: cell-based, human; settings: 10 μM hypericin or 0.462 μM 8-MOP, 18 h
Excerpt: FIG. 8, comprising Panels A-G, is a series of graphs which represent distributions of cell types within various cultures, as assessed by flow cytometric cell sorting, using incorporation of dUTP-FITC into fragmented DNA as a selection criterion. Malignant leukocytes which have not been induced to undergo apoptosis are represented as points which are located below an imaginary horizontal line located at approximately 2×10^1 on the vertical axis of each graph. Malignant leukocytes which have been induced to undergo apoptosis are represented as points which are located above an imaginary horizontal line located at approximately 3×10^1 on the vertical axis of each graph. […] The graph in Panel B corresponds to cells which were treated with hypericin and which were not illuminated. The graph in Panel C corresponds to cells which were treated with hypericin and which were illuminated using visible light. The graph in Panel D corresponds to cells which were treated with hypericin and which were illuminated using UV-A light. The graph in Panel E corresponds to cells which were treated with 8-MOP and which were not illuminated. The graph in Panel F corresponds to cells which were treated with 8-MOP and which were illuminated using visible light. The graph in Panel G corresponds to cells which were treated with 8-MOP and which were illuminated using UV-A light.
Hypericin-treated malignant leukocytes and 8-MOP-treated leukocytes were photoactivated using visible light for 20 minutes or 2 J/cm^2 UV-A light, or were not photoactivated, as described in Example 1. 18 hours after photoactivation, or 18 hours after preparation of the cultures which were not photoactivated, leukocyte cultures were harvested, and apoptotic cells were separated from non-apoptotic cells using a FACScan flow cytometer (Becton Dickinson Immunocytometry Systems, San Jose, Calif.). Apoptotic cells were distinguished from non-apoptotic cells based on increased dUTP-FITC incorporation.

[2] = system: normal PBMC; assay: Lymphocyte proliferation (3H-TdR incorporation), ConA-stimulated PBMC from normal human subject; type: cell-based; settings: for IC50: read-out: IC50 of ConA-induced cell proliferation; for IC100: 72 h, read-out: concentration at which proliferation was completely inhibited
Excerpt: (§1) In two of the types of lymphocytes, the mitogen, ConA, was used to induce proliferation, as described (Fox et al., 1993, Cell. Immunol. 150:45-58). The third type of lymphocytes used in this example proliferated actively in vitro without the need for mitogenic stimulation. The three types of lymphocytes which were used in this example were: PBMC obtained from a normal human subject and stimulated with ConA; PBMC, including malignant CD4+ T-lymphocytes, obtained from a human subject having CTCL and stimulated with ConA; and PBMC obtained from a normal human subject, which PBMC were exposed to Epstein-Barr virus (EBV) after being obtained from the subject, to produce transformed lymphocytes. It is known that EBV-transformed B-lymphocytes proliferate actively in vitro (Polack, 1996, Proc. Natl. Acad. Sci. U.S.A. 93:10411-10416; Longnecker, 1994, Leukemia 8:546-550).
(§2) Peripheral blood mononuclear cells (PBMC) were obtained by separating them from whole blood, using Ficoll-Paque separation techniques and media (Boyum, 1964, Nature 793-794). After they were obtained, PBMC were resuspended in RPMI 1640 medium, which comprised 10% (v/v) fetal bovine serum (GIBCO, Grand Island, N.Y.), and were distributed into the wells of 96-well microtiter plates. PBMC transformed using EBV were made as described (Neitzel, 1986, Hum. Gen. 73:320-326)
(§3) This stock solution stored at 4° C. in the dark. A stock solution comprising 462.5 μM 8-methoxypsoralen (8-MOP) was prepared in 2% (v/v) benzyl alcohol. 8-MOP was obtained from Sigma (St. Louis, Mo.).
(§4) In cultures of transformed leukocytes in which 8-MOP was used, the concentrations of 8-MOP which were used were 92.5 μM, 18.5 μM, 3.7 μM, 0.74 μM, 0.15 μM, and 0.030 μM. Thereafter, ConA was then added to preselected wells to achieve a final concentration of 10 μg/ml of ConA in those wells.
(§5) Following preparation of the microtiter culture plates, preselected plates were illuminated with fluorescent visible light for 10-30 minutes, using four fluorescent bulbs (type F15T8CW, TFC Inc., Taiwan) spaced at a distance of 9 cm above the plates. Other preselected plates were illuminated with 0.5-2 Joules per square centimeter UV-A light using a UV-A light box containing 8 UVAR 06-91 bulbs. Still other preselected plates were not exposed to light. The covers of plates which were exposed to light were left in place during illumination.
(§6) Following illumination, plates which had been illuminated were placed into a dark incubator which was maintained at 37° C. Non-illuminated plates were placed into the incubator immediately after preparation. All plates were incubated for seventy-two hours. During the final eighteen hours of incubation, tritiated thymidine (^3 H-TdR) was added to each well of each plate. No extraordinary precautions were used to prevent light exposure during the addition of ^3 H-TdR.
(§7) Lymphocyte proliferation was assessed by measuring the extent of incorporation of ^3 H-TdR into newly synthesized DNA within the cells at the end of the seventy-two hour incubation period, as described (Fox, 1993, Cell. Immunol. 150:45-58).

[3] = system: PBMC from a patient to whom 8-MOP had been administered; assay: ConA-induced proliferation of PBMC from a patient to whom 8-MOP had been administered, visible light; type: cell-based, human; settings: 20 min
Experimental: PBMC from a patient to whom 8-MOP had been administered were illuminated for 20 minutes using the bank of visible fluorescent lights used in the experiments described in this example. Proliferation of these cells in response to ConA was measured.

[4] = system: neoplastic ("CTL") PBMC; assay: Lymphocyte proliferation (3H-TdR incorporation), ConA-stimulated neoplastic PBMC from subject having CTCL; type: cell-based, human; settings: for IC50: read-out: IC50 of ConA-induced cell proliferation
Excerpt: as §1, §2, §3, §4, §5, §6, §7

[5] = system: xenografted carcinoma cells; settings: intraperitoneal; local illumination of skin; cited from earlier work
[6] = Absorbance spectrum / photoactivation wavelength; type: physicochemical; settings: 20 μM hypericin in phosphate-buffered saline
Excerpt: Absorbance maxima which were observed included maxima at 327 nm, 563 nm, and 603 nm.

[7] = system: leukemia cells; settings: cited from earlier work
[8] = system: leukocytes; settings: photoactivated; cited from earlier work
[9] = photoreaction; cited from earlier work
[10] = system: enveloped virus; settings: hypericin photoactivated prior to treatment of virus; cited from earlier work
[11] = system: viruses; settings: photoactivated; in vitro; cited from earlier work
[12] = Homo sapiens, PBMC, 10 min, visible light, 10 min
[13] = Homo sapiens, PBMC, 20 min, visible light, 20 min
[14] = Homo sapiens, PBMC, 0.5 h, visible light, 30 min
[15] = Homo sapiens, PBMC, UV-A, 0.5 J/sc
[16] = Homo sapiens, PBMC, UV-A, 1 J/sc
[17] = Homo sapiens, PBMC, not illuminated, benzyl alcohol vehicle itself inhibitory at highest concentrations

COc1c2occc2cc2ccc(=O)oc12 [8-MOP, 8-methoxypsoralen]
induction of apoptosis (flow cytometry, FIG. 8) ([1]; UV-A 2 J/cm^2): induced apoptosis in most cells
induction of apoptosis (flow cytometry, FIG. 8) ([1]; no photoactivation): neither hypericin nor 8-MOP induced significant apoptosis
induction of apoptosis (flow cytometry, FIG. 8) ([1]; visible light 20 min): induced apoptosis in only a limited number of cells
IC50 [2, 12]: 33500 nM
IC50 [2, 13]: 33500 nM
IC50 [2, 14]: 33500 nM
IC50 [2, 15]: 960 nM
IC50 [2, 16]: 170 nM
IC50 ([2]; Homo sapiens, PBMC, UV-A, 2 J/sc): 150 nM
IC50 [2, 17]: 33500 nM
illumination-dependent inhibition of proliferation [3]: No illumination-dependent inhibition of proliferation
IC50 [4, 12]: 3600 nM
IC50 [4, 13]: 3600 nM
IC50 [4, 14]: 3100 nM
IC50 [4, 15]: 740 nM
IC50 [4, 16]: 200 nM
IC50 [4, 17]: 4400 nM

Cc1cc(O)c2c(=O)c3c(O)cc(O)c4c5c(O)cc(O)c6c(=O)c7c(O)cc(C)c8c1c2c(c34)c(c78)c65 [hypericin, 1,3,4,6,8,13-Hexahydroxy-10,11,dimethyl-phenanthro[1,10,9,8,-opqra]perylene-7,14-dione]
inhibition of proliferation of xenografted carcinoma cells [5]: inhibited proliferation of these carcinoma cells
induction of apoptosis (flow cytometry, FIG. 8) ([1]; UV-A 2 J/cm^2): induced apoptosis in most cells
induction of apoptosis (flow cytometry, FIG. 8) ([1]; no photoactivation): neither hypericin nor 8-MOP induced significant apoptosis
induction of apoptosis (flow cytometry, FIG. 8) ([1]; visible light 20 min): induced apoptosis in nearly all cells
absorbance maximum [6]: 327 nm and 563 nm and 603 nm
inhibition of proliferation [7]: incapable of inhibiting proliferation of leukemia cells
IC50 [2, 12]: 760 nM
IC50 [2, 13]: 110 nM
IC100 ([2]; Homo sapiens, PBMC, visible light, 10 min): 3.2 µM
IC100 ([2]; Homo sapiens, PBMC, visible light, 20 min): 0.64 µM
IC50 [2, 15]: 4600 nM
IC50 [2, 16]: 2100 nM
IC50 [2, 17]: 22000 nM
inhibition of mitogen-induced proliferation ([2]; normal PBMC): inhibits mitogen-induced proliferation of PBMC
IC50 ([2]; not illuminated, benzyl alcohol vehicle itself inhibitory at highest concentrations): 23200 nM
effect of 30 min illumination on inhibition of proliferation ([2]; visible light 30 min, relative to shorter illumination): did not significantly increase inhibition of cell proliferation
IC50 ([2]; visible light, 10 min): 680 nM and 800 nM
IC50 ([2]; visible light, 20 min): 180 nM and 100 nM
effect on leukocytes [8]: no effect of hypericin on leukocytes
singlet oxygen production [9]: produce singlet oxygen
effect on enveloped virus [10]: reduce the infectious titer of the enveloped virus, but did not inactivate the virus
IC50 [4, 12]: 400 nM
IC50 [4, 13]: 340 nM
IC100 ([4]; Homo sapiens, PBMC, 72 h, visible light, 20 min, read-out: concentration at which proliferation was completely inhibited): 3.2 µM
IC50 [4, 15]: 1800 nM
IC50 [4, 16]: 570 nM
inhibition of mitogen-induced proliferation ([4]; malignant PBMC): inhibits mitogen-induced proliferation of PBMC
IC50 ([4]; visible light, 20 min): 530 nM and 300 nM
inactivation of viruses in blood compositions [11]: could be used to inactivate viruses in blood compositions in vitro
